# Assay results taken from ChEMBL document CHEMBL1201862, “PubChem BioAssay data set” (2004).
# Calls of active or inactive are those of the source.
# Assays:
# [1] = biological target: Genome polyprotein (dengue virus type 2, UniProt P29990); test: flavivirus cap methylation enzyme inhibition – biochemical, confirmation dose response, primary screen (AID 588689); assay type: functional
# [2] = biological target: T1, Probable nicotinate-nucleotide adenylyltransferase (Staphylococcus aureus (strain N315), UniProt P65502); assay type: functional, Staphylococcus aureus subsp. aureus N315;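 on IC50 Mean: confirmatory dose-response retesting of NadD inhibitor hits first found in an ultra-high-throughput screen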
# T1 sequence (P65502 whole entry): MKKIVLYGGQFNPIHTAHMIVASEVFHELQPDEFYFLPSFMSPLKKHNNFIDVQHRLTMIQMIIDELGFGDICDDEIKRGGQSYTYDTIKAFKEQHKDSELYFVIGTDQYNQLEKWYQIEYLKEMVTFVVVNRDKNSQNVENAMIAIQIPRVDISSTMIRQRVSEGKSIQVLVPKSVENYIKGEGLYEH
# [3] = biological target: T1, Probable nicotinate-nucleotide adenylyltransferase; assay type: functional, Staphylococcus aureus subsp. aureus N315; conditions: read-out: IC50_Mean
# [4] = biological target: T2, Sentrin-specific protease 1 (Homo sapiens, UniProt Q9P0U3); test: SENP1 catalytic domain blockers, concentration series – biochemical, kinetic FRET, dose response (AID 651697); assay type: functional; conditions: read-out: IC50_Mean
# T2 sequence (Q9P0U3 whole entry): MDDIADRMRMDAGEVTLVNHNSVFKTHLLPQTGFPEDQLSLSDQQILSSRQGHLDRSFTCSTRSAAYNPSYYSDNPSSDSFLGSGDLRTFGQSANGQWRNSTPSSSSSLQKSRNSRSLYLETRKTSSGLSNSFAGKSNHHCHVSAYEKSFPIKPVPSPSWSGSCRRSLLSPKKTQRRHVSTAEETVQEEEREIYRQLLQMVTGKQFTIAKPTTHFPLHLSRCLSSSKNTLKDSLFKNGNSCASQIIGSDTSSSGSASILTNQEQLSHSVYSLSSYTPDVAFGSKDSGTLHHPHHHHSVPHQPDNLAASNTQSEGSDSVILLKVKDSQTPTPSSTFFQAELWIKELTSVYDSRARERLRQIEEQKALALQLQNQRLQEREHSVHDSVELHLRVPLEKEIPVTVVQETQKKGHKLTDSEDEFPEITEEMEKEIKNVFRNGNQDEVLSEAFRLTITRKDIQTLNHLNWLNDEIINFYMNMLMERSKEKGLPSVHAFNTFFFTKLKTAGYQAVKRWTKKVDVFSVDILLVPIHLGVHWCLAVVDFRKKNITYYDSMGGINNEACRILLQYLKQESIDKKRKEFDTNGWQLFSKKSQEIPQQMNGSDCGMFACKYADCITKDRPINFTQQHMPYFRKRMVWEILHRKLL
# [5] = biological target: T2, Sentrin-specific protease 1; test: Dose response confirmation of small molecule inhibitors of the catalytic domain of the SUMO protease, SENP1 in a FRET assay.; assay type: functional; conditions: read-out: IC50_Mean
# [6] = viability loss in HEK293T cells – cell-based, cherry-picks, cytotoxicity control for HIV Vif inhibitor project, dose response (AID 652208); assay type: functional
# [7] = biological target: Beta-lactamase (Salmonella choleraesuis (strain SC-B67), UniProt Q5J463); test: Epi-absorbance-based counterscreen for selective VIM-2 inhibitors: dose response biochemical high throughput screening assay to identify inhibitors of TEM-1 serine-beta-lactamase.
# Chain of Beta-lactamase (Salmonella choleraesuis (strain SC-B67), UniProt Q5J463) (Q5J463 whole entry): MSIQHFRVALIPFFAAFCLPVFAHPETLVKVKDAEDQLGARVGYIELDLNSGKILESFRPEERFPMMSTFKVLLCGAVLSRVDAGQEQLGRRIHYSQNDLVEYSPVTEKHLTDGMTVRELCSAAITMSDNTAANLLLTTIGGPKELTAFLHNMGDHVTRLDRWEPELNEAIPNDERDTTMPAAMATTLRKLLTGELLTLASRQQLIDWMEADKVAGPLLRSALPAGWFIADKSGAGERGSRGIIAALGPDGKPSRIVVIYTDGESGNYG
# [8] = biological target: T3, Beta-lactamase (Pseudomonas aeruginosa, UniProt Q79MP6); test: inhibition of IMP-1 beta-lactamase activity – biochemical, epi-absorbance, selectivity assay for VIM-2 inhibitor project, dose response (AID 1920)
# T3 sequence (Q79MP6 whole entry): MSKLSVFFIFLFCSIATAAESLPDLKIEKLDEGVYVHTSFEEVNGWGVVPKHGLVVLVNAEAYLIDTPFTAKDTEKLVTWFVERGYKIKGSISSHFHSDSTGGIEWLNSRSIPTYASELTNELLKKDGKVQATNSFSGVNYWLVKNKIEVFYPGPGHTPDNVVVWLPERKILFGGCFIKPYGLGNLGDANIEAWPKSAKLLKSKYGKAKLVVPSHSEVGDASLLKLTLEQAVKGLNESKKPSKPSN
# [9] = biological target: T4, Beta Lactamase (Pseudomonas aeruginosa, UniProt Q932Y6); test: concentration-dependent VIM-2 enzyme inhibition – biochemical, epi-absorbance readout, selective inhibitors, dose response (AID 1919)
# T4 sequence (Q932Y6 whole entry): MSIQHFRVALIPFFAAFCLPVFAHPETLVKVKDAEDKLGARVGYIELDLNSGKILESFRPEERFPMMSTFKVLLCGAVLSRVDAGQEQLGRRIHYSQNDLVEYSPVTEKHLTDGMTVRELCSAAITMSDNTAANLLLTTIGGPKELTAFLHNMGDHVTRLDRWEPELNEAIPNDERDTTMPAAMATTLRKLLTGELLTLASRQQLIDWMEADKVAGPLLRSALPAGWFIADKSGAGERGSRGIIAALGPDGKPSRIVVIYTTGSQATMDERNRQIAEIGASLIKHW
# [10] = biological target: T3, Beta-lactamase; test: […] counterscreen for selective VIM-2 inhibitors: dose response biochemical high throughput screening assay to identify inhibitors of IMP-1 metallo-beta-lactamase.
# [11] = biological target: T4, Beta Lactamase; test: VIM-2 CCF2 hydrolysis inhibition, assay artifact filter – biochemical, FRET readout, CCF2 substrate, artefact control for selective VIM-2 inhibitor project, dose response (AID 1926)
# [12] = biological target: T5, Coagulation factor XII (Homo sapiens, UniProt P00748); test: Factor XIIa Dose Response Confirmation from Single Well HTS. [Related pubchem assays (depositor defined):AID701]; assay type: functional
# T5 sequence (P00748 whole entry): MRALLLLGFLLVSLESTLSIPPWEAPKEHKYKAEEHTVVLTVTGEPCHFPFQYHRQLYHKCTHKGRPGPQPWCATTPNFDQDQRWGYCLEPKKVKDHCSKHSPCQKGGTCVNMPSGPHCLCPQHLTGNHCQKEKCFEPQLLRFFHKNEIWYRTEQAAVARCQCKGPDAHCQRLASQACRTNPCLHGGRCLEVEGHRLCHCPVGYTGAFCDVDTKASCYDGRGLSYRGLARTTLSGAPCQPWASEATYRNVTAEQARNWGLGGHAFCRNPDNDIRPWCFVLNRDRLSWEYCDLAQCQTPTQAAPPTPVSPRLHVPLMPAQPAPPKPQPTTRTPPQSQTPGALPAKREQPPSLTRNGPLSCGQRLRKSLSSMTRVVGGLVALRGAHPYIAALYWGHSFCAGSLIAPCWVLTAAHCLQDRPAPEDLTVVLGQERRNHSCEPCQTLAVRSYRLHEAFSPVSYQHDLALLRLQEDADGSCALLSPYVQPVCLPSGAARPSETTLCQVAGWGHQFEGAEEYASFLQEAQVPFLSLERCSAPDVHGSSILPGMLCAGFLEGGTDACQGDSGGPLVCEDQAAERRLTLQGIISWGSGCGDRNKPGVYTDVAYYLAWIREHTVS
# [13] = biological target: Mu-type opioid receptor (Homo sapiens, UniProt P35372); assay type: functional, cell-based;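 further: U2OS cells with beta-arrestin recruitment to OPRM1 by beta-gal complementation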
# Chain of Mu-type opioid receptor (P35372 whole entry): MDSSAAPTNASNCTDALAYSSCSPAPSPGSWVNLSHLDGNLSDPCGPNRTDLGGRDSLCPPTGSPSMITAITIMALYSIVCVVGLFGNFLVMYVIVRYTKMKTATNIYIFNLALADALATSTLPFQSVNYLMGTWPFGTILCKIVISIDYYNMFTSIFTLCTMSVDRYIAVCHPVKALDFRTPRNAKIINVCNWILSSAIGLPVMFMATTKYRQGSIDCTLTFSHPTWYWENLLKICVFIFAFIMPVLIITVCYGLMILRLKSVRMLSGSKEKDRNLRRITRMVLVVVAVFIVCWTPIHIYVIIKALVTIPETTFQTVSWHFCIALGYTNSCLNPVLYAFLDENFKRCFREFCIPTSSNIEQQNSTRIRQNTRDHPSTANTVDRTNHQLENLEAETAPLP
# [14] = biological target: 5-hydroxytryptamine receptor 2A (Mus musculus, UniProt P35363); assay type: functional, cell-based;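 further: CHO-K1 cells with tagged receptor and beta-arrestin; agonist potency measured as compound-induced activation of the receptor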
# Chain of 5-hydroxytryptamine receptor 2A (P35363 whole entry, the tested form may be a part): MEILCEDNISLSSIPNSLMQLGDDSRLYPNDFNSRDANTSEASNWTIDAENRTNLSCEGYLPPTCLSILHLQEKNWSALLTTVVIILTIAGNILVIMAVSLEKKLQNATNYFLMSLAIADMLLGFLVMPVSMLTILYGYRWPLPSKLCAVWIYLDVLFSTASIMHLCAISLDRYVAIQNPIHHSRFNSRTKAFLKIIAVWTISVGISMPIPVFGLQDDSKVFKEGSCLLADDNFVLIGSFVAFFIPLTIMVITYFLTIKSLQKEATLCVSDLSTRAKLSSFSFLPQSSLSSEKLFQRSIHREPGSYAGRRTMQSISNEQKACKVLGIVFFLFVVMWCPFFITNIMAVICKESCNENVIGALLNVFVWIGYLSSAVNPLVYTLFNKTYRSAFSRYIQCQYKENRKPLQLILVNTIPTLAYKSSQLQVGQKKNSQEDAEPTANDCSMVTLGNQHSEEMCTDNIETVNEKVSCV
# [15] = biological target: Hepatocyte nuclear factor 4-alpha (Homo sapiens, UniProt P41235); assay type: functional, cell-based;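 further: biochemical luminescence-based dose-response counterscreen measuring inhibition of HNF4 dimerization, run alongside a screen for blockers of ABHD5–perilipin-5 interaction; split luciferase complementation of HNF4 fusion proteins in cell lysate measuring dimerization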
# Chain of Hepatocyte nuclear factor 4-alpha (P41235 whole entry, the tested form may be a part): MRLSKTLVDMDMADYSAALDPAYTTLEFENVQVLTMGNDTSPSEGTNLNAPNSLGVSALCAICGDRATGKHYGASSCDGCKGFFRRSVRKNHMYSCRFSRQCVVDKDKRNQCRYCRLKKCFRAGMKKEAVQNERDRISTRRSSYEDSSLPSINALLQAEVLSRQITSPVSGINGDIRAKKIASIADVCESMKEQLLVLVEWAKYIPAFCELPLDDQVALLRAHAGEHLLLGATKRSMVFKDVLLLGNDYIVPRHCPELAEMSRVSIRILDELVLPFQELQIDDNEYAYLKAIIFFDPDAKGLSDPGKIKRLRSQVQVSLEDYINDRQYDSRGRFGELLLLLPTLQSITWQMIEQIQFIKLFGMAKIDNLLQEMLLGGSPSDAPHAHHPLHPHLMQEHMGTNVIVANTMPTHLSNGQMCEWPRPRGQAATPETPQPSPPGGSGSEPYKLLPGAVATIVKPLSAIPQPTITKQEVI
# [16] = cytotoxicity toward MDA-MB-231 breast cancer cells – cell-based, CellTiter-Glo luminescence, cherry-pick, cytotoxicity control for RAD54 inhibitor project, dose response (AID 651692); assay type: functional
# [17] = viability loss in HeLa cells – cytotoxicity control for MgcRacGAP inhibitor project, dose response (AID 624300); assay type: functional
# [18] = biological target: T6, DNA repair and recombination protein RAD54-like (Homo sapiens, UniProt Q92698); test: RAD54 Holliday junction migration blockers – biochemical, fluorescence, cherry-picked samples, dose series, confirmation (AID 651657); assay type: functional
# T6 sequence (Q92698 whole entry): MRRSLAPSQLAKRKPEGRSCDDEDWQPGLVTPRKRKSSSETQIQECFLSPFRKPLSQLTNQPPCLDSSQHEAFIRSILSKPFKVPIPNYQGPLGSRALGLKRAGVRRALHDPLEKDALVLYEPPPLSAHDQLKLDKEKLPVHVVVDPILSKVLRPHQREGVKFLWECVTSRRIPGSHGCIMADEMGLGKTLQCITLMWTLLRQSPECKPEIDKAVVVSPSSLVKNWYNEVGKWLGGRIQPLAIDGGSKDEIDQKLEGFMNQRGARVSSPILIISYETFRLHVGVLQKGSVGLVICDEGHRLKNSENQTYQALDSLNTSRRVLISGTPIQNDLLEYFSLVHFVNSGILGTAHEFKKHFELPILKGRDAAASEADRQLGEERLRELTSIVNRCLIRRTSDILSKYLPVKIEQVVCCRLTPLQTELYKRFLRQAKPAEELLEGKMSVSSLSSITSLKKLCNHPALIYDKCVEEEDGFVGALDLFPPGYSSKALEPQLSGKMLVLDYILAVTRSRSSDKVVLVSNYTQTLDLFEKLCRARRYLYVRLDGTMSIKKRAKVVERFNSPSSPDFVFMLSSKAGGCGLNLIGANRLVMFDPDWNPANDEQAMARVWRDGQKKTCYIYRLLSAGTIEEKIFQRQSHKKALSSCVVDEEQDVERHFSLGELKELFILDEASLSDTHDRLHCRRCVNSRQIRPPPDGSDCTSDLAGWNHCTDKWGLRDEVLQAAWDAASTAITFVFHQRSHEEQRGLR
# [19] = biological target: T7, Rac GTPase-activating protein 1 (Homo sapiens, UniProt Q9H0H5); test: blockers of MgcRacGAP-driven Rac1 GTP hydrolysis – biochemical, ADP Hunter fluorescence, primary and confirmatory, confirmation (AID 624330); assay type: functional
# T7 sequence (Q9H0H5 whole entry): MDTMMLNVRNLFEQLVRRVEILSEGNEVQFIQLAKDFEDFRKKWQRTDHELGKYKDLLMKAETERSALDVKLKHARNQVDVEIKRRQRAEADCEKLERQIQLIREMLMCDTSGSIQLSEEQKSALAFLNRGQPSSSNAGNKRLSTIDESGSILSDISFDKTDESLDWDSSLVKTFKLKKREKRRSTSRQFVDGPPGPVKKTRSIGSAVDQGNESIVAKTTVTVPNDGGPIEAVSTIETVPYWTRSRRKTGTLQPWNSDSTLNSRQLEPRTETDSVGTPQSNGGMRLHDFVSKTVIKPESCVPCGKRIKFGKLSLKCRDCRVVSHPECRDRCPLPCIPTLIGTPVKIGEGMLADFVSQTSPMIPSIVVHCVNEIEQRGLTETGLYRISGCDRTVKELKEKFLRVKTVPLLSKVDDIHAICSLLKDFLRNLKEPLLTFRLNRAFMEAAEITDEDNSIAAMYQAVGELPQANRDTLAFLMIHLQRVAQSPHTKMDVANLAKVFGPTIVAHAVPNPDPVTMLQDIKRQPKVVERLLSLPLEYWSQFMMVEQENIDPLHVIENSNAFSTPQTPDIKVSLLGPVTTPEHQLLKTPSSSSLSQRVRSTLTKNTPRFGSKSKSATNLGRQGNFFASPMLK
# [20] = biological target: T8, DNA repair protein RAD52 homolog (Homo sapiens, UniProt P43351); assay type: functional, biochemical
# T8 sequence (P43351 whole entry): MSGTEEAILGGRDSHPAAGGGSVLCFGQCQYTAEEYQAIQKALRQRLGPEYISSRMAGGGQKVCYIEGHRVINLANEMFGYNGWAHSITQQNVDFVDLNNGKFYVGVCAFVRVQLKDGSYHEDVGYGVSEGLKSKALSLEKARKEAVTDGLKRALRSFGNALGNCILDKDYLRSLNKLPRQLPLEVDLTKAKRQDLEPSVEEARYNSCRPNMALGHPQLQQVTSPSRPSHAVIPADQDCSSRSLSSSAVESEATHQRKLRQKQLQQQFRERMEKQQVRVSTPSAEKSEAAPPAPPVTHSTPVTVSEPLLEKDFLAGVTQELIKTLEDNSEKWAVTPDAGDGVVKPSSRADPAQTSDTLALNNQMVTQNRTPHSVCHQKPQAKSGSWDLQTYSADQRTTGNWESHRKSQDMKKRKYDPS
# [21] = biological target: T9, Histone-lysine N-methyltransferase NSD2 (Homo sapiens, UniProt O96028); assay type: biochemical
# T9 sequence (O96028 whole entry): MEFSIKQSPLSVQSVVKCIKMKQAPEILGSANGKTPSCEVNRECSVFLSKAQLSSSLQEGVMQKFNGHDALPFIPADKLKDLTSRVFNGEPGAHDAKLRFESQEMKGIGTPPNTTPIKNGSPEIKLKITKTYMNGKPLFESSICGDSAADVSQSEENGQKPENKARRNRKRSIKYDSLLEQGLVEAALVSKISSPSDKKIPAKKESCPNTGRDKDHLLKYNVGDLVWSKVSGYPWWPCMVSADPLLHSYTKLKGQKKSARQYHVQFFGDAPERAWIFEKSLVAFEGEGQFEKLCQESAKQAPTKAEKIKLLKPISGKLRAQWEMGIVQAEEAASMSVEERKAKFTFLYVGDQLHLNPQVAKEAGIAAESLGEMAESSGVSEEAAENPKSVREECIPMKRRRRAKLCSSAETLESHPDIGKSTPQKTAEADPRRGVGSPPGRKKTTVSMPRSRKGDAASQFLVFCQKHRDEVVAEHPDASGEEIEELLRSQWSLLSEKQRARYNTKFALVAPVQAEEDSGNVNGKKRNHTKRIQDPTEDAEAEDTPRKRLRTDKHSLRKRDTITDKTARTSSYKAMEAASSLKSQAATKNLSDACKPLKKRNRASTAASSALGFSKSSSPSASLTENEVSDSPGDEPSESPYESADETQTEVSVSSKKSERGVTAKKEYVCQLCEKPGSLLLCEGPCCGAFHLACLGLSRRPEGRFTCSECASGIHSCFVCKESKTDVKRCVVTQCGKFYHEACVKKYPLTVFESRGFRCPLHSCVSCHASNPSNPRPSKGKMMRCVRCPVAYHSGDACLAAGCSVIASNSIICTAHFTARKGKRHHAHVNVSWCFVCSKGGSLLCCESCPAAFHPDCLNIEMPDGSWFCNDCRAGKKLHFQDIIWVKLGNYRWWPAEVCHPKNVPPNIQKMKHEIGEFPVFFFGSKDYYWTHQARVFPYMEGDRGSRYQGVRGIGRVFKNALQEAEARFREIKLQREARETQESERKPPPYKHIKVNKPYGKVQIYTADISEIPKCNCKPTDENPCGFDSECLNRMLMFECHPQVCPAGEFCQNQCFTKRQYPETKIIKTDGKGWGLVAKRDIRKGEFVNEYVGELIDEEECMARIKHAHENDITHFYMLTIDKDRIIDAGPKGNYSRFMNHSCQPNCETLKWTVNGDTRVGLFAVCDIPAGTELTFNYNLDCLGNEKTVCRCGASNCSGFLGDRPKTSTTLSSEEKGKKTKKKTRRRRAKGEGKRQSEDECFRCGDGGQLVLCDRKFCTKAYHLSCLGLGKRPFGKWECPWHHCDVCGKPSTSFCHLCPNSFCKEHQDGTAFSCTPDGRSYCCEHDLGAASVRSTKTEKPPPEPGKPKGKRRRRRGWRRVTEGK
# Chain of Genome polyprotein (P29990 2492-3391 limits assumed): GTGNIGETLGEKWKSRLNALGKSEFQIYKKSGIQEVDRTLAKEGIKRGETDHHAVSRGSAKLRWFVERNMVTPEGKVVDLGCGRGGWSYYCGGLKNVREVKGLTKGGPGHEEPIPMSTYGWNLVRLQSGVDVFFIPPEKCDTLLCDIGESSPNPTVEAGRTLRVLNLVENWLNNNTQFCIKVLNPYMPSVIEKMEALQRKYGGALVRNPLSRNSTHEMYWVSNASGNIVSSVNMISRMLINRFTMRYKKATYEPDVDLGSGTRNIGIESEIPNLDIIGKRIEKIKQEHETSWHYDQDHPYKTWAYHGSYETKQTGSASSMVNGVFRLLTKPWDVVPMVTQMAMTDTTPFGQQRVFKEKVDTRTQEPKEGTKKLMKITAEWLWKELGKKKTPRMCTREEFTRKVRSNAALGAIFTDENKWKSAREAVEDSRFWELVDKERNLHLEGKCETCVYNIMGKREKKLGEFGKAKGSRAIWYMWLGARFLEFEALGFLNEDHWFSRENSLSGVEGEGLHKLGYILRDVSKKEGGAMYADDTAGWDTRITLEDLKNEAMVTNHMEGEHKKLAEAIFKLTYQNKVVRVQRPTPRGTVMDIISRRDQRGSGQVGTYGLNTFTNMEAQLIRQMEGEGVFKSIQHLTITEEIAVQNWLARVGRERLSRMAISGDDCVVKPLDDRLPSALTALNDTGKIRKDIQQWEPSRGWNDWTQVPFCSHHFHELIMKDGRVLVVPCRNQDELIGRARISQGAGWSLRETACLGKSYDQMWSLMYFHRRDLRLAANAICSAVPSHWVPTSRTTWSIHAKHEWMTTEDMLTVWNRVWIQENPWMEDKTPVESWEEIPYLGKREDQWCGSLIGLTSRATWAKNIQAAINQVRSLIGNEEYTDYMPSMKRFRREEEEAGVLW
smiles,measurement,setting,value
Cc1ccc(NS(=O)(=O)c2ccc(N/N=C/c3ccccc3OCC(=O)O)c([N+](=O)[O-])c2)c(C)c1,IC50,[1],43.9 µM (active)
same,IC50,[2],6.32 µM (active)
same,IC50,[3],23.3 µM (active)
COc1ccc(N2C(=O)C3C(C2=O)C(C(=O)c2ccc(Cl)cc2)N2CCCC32)cc1 (stereo unspecified),IC50,[4],5.56 µM (active)
same,IC50,[5],4.36 µM (active)
CCOC(=O)C1CCN(S(=O)(=O)c2cccc(-c3cn4cc(C)ccc4n3)c2)CC1,AC50,[6],> 52 µM (inactive)
COc1ccc(OC)c(/C=N/NC(=O)CC2C(=O)NN=C2C)c1 (stereo unspecified),IC50,[7],> 59.6 µM (inactive)
same,IC50,[8],> 59.6 µM (inactive)
same,IC50,[9],6.1 µM (active)
same,IC50,[10],> 59.6 µM (inactive)
same,IC50,[11],2.13 µM (active)
CCOC(=O)N1CCN(C/C(C)=C/c2ccccc2)CC1,IC50,[12],> 50 µM (inactive)
same,EC50,[13],92.5 µM (inactive)
same,EC50,[14],11.5 µM (inactive)
COc1cc(C)c2sc3ccccc3c(=O)c2c1NCCN(C)C,IC50,[15],36.1 µM (inactive)
same,AC50,[16],33.6 µM (active)
same,CC50,[17],53.3 µM (active)
same,AC50,[18],2.7 µM (active)
same,IC50,[19],71.4 µM (active)
same,AC50,[20],1.07 µM (active)
same,AC50,[21],5.29 µM (active)
